Assay results reported in patent publication US5599808A, “Aqueous indolocarbazole solutions” (Cephalon, Inc., priority 1995, dated 1997).
Values after ≈ are worked out from the molar mass of the structure shown. Blank lines part the entries; values can stand above or below the compound they belong to.

How the values were obtained:
[1] = Experimental: In a flask, 10 g of PVP (k value of 17) was added to 990 grams of propylene glycol. This mixture was stirred until the PVP was completely dissolved. Two hundred fifty (250) mg of compound A (Table 1) was added to 10 ml of the above solution and the mixture was stirred until compound A was completely dissolved. This solution is called Indolocarbazole Propylene Glycol Concentrate (IPGC).
To test for the stability of an indolocarbazole in this solution, 1 ml aliquots of IPGC were removed and placed in small amber colored vials and kept at 4° C room temperature (about 25° C.), 37° C, and 60° C for 4, 7, 14 and 30 days. The sample at 4° C was kept in a refrigerator and received light when a door was opened. The sample at room temperature was placed on the laboratory bench and exposed to the fluorescent lights of the room during the day. The samples at 37° C and 60° C were kept in small incubators essentially in the dark. A 1 ml aliquot of the same IPGC was added to a clear vial and that vial was kept at 25° C in 300 foot candles of light for 4, 7, 14 and 30 days. At each interval of time, an aliquot of IPGC was removed from each vial, diluted 200 fold in DMSO and the concentration of compound A determined by reversed phase HPLC using a UV detector (290 nm).
In this example, compound A was further diluted in Indolocarbazole Diluent Solution. […]

physchem = conditions: organic solvent or mixture
Experimental: In general, a solution of the concentrate can be prepared by combining a dispersant such as polyvinylpyrrolidone C-30 and a selected organic solvent such as propylene glycol into a beaker. The mixture is continuously stirred until completely dissolved. Solid PVP or other solution components may take 1-2 hours to dissolve completely at room temperature.
An amount of an indolocarbazole, for example, staurosporine, K-252a, or any one of indolocarbazole A, B, or C (Table 1) can each be individually weighed and added to a small aliquot of the aqueous solution, resulting in a 10 mg/ml solution after the indolocarbazole completely dissolves. Alternatively, a mixture of indolocarbazoles may be combined, weighed, and added to a small aliquot of the aqueous solution resulting in a 10 mg/ml solution after the indolocarbazole completely dissolves. An indolocarbazole solution can be stirred or shaken vigorously overnight. Any undissolved indolocarbazole is removed by standard centrifugation or filtration techniques. The concentration of solubilized indolocarbazole can be determined by reversed phase HPLC using a UV detector (290 nm).
The following HPLC conditions are used to determine the concentration of an indolocarbazole:
HPLC Column: Zorbax Rx C-18 4.6×250 mm, 5 micron particle size
Prior to injection of an indolocarbazole solution, there is allowed a 10 minute equilibration time.
Fifty g of PEG-400 were added to 50 ml of water and the mixture vigorously stirred until completely dissolved. One mg of either K-252a, staurosporine or the indolocarbazoles B or C (see Table 1) were added individually to a 100 μl aliquot of the PEG-400 solution and the resulting mixture was shaken overnight. The solution was clarified by centrifugation at 1000 rpm for 10 minutes. The supernatant was saved and any residue discarded. Ten μl of the supernatant was removed, diluted with DMSO (100:1) and the concentration of dissolved K-252a determined by HPLC.
Same as example 1 except that PEG-600 was used instead of PEG-400.
Same as example 1 except that PEG-1000 was used instead of PEG-400.
Same as example 1 except that 48 ml of water was used and 2 g of benzyl alcohol was added to the PEG-400 solution.
Same as example 2 except that 48 ml of water was used and 2 g of benzyl alcohol was added to the PEG-600 solution.
Same as example 3 except that 48 ml of water was used and 2 g of benzyl alcohol was added to the PEG-1000 solution.
2.5 g of benzyl alcohol was added to 47.5 g of PEG-400 and, in a separate container, 2.5 g of Pluronic F68 was added to 47.5 ml of water. Each solution was stirred until completely dissolved, then each solution was combined and stirred until homogeneous. One mg of K-252a was added to 100 μl of the solution and the resulting mixture was shaken overnight. The solution was clarified by centrifugation at 1000 rpm for 10 minutes. Ten (10) μl of supernatant was removed, diluted with DMSO (100:1), and the concentration of dissolved K-252a determined by HPLC.
Same as example 7 except that Pluronic™ L61 was used instead of Pluronic™ F68.
Same as example 7 except that Pluronic™ L64 was used instead of Pluronic™ F68.
Same as example 7 except that Tween™ 20 was used instead of Pluronic™ F68.
Same as example 7 except that Tween™ 80 was used instead of Pluronic™ F68.
Same as example 7 except that PVP was used instead of Pluronic™ F68 and PEG-300 was used instead of PEG-400.
Same as example 12 except that PEG-400 was used instead of PEG-300 and indolocarbazoles A, B or C were each solubilized individually in addition to K-252a.
Same as example 12 except that PEG-600 was used instead of PEG-300 and indolocarbazoles A, B or C were each solubilized individually in addition to K-252
Same as example 12 except that PEG-1000 was used instead of PEG-300.
Ten (10) g of Triton X-100 was added to 38 ml of water and the mixture was stirred thoroughly.

[2] = cited from earlier work; for insolubility in water: Nakanishi et al.
[3] = peg 400/ba/pvp/h2o, Concentration Obtained
[4] = peg 600/ba/pvp/h2o, Concentration Obtained
[5] = peg 600/ba/pvp/h2o, Concentration Obtained (saturation level)
[6] = peg 1000/ba/pvp/h2o, Concentration Obtained
[7] = 50% peg 400, 50% h2o, Concentration Obtained, Example 1: 50% PEG 400, 50% H2O, target 10 mg/ml
[8] = 50% peg 600, 50% h2o, Concentration Obtained, Example 2: 50% PEG 600, 50% H2O, target 10 mg/ml
[9] = 50% peg 1000, 50% h2o, Concentration Obtained, Example 3: 50% PEG 1000, 50% H2O, target 10 mg/ml
[10] = peg 400/ba/h2o, Concentration Obtained, Example 4: 50% PEG 400, 2% BA, 48% H2O, target 10 mg/ml
[11] = peg 600/ba/h2o, Concentration Obtained, Example 5: 50% PEG 600, 2% BA, 48% H2O, target 10 mg/ml
[12] = peg 600/ba/pvp/h2o, Concentration Obtained (saturation level), Example 22: 50% PEG 600, 2% BA, 10% PVP, 38% H2O, 10 mg added
[13] = peg 1000/ba/h2o, Concentration Obtained, Example 6: 50% PEG 1000, 2% BA, 48% H2O, target 10 mg/ml

Stability of Compound A in IPGC ([1]; 0 min): 100%
loss of activity in IPGC ([1]; propylene glycol with pvp, 720 h): 13.3%
solubility thermodynamic (physchem; [3]): 10000 µg/mL (≈ 22.1 mM)
solubility thermodynamic (physchem; [4]): 10000 µg/mL (≈ 22.1 mM)
solubility thermodynamic (physchem; [5]): 40000 µg/mL (≈ 88.2 mM)
solubility thermodynamic (physchem; [6]): 10000 µg/mL (≈ 22.1 mM)
SMILES: COC1(CO)CC2OC1(C)n1c3ccccc3c3c4c(c5c6ccccc6n2c5c31)C(=O)NC4 (centres unmarked) [Compound A]

SMILES: C[C@@H]1O[C@@H](n2c3ccccc3c3c4c(c5c6ccccc6[nH]c5c32)CNC4=O)[C@H](O)[C@H](O)[C@H]1O [Compound K-252d]
insolubility in water [2]: insolubility
solubility in non-aqueous, toxic solvents [2]: soluble in non-aqueous, toxic solvents
solubility in water [2]: insoluble in water

SMILES: CC12OC(CC1(O)C(=O)O)n1c3ccccc3c3c4c(c5c6ccccc6n2c5c31)CNC4=O (centres unmarked) [Compound K-252b]
solubility in non-aqueous, toxic solvents [2]: soluble in non-aqueous, toxic solvents

SMILES: O=C1NCc2c1c1c3ccccc3[nH]c1c1[nH]c3ccccc3c21 [Compound K-252c]
insolubility in water [2]: insolubility
solubility in non-aqueous, toxic solvents [2]: soluble in non-aqueous, toxic solvents
solubility in water [2]: insoluble in water

SMILES: COC(=O)C1(O)CC2OC1(C)n1c3ccccc3c3c4c(c5c6cc(O)ccc6n2c5c31)C(=O)NC4 (centres unmarked) [Compound B]
solubility thermodynamic (physchem; [7]): 3150 µg/mL (≈ 6.52 mM)
solubility thermodynamic (physchem; [8]): 2680 µg/mL (≈ 5.54 mM)
solubility thermodynamic (physchem; [9]): 4440 µg/mL (≈ 9.18 mM)
solubility thermodynamic (physchem; [10]): 3260 µg/mL (≈ 6.74 mM)
solubility thermodynamic (physchem; peg 400/ba/pvp/h2o, Concentration Obtained, Example 13: 47.5% PEG 400, 2.5% BA, 2.5% PVP, 47.5% H2O, target 10 mg/ml): 10000 µg/mL (≈ 20.7 mM)
solubility thermodynamic (physchem; [11]): 3590 µg/mL (≈ 7.43 mM)
solubility thermodynamic (physchem; peg 600/ba/pvp/h2o, Concentration Obtained (saturation level), Example 20: 47.5% PEG 600, 2.5% BA, 2.5% PVP, 47.5% H2O, 10 mg added): 10000 µg/mL (≈ 20.7 mM)
solubility thermodynamic (physchem; [12]): 16400 µg/mL (≈ 33.9 mM)
solubility thermodynamic (physchem; peg 600/ba/pvp/h2o, Concentration Obtained, Example 14: 47.5% PEG 600, 2.5% BA, 2.5% PVP, 47.5% H2O, target 10 mg/ml): 10000 µg/mL (≈ 20.7 mM)
solubility thermodynamic (physchem; [13]): 5020 µg/mL (≈ 10.4 mM)
solubility thermodynamic (physchem; peg 1000/ba/pvp/h2o, Concentration Obtained, Example 19: 40% PEG 1000, 2% BA, 10% PVP, 48% H2O, target 10 mg/ml): 10000 µg/mL (≈ 20.7 mM)

SMILES: CN[C@@H]1C[C@H]2O[C@@](C)([C@@H]1OC)n1c3ccccc3c3c4c(c5c6ccccc6n2c5c31)C(=O)NC4 [Staurosporine, staurosporine]
solubility thermodynamic (physchem; [7]): 710 µg/mL (≈ 1.52 mM)
solubility thermodynamic (physchem; [8]): 1890 µg/mL (≈ 4.05 mM)
solubility thermodynamic (physchem; [9]): 1650 µg/mL (≈ 3.54 mM)
solubility thermodynamic (physchem; [10]): 1210 µg/mL (≈ 2.59 mM)
solubility thermodynamic (physchem; [11]): 1890 µg/mL (≈ 4.05 mM)
solubility thermodynamic (physchem; [12]): 8400 µg/mL (≈ 18 mM)
solubility thermodynamic (physchem; peg 600/ba/pvp/h2o, Concentration Obtained, Example 18: 50% PEG 600, 2% BA, 10% PVP, 38% H2O, target 10 mg/ml): 8410 µg/mL (≈ 18 mM)
solubility thermodynamic (physchem; peg 600/ba/triton x-100/h2o, Concentration Obtained, Example 16: 50% PEG 600, 2% BA, 10% Triton X-100, 38% H2O, target 10 mg/ml): 7590 µg/mL (≈ 16.3 mM)
solubility thermodynamic (physchem; peg 600/ba/tween 80/h2o, Concentration Obtained, Example 17: 50% PEG 600, 2% BA, 10% Tween 80, 38% H2O, target 10 mg/ml): 4600 µg/mL (≈ 9.86 mM)
solubility thermodynamic (physchem; [13]): 1680 µg/mL (≈ 3.6 mM)

solubility thermodynamic (physchem; 50% peg 400, 50% h2o, Concentration Obtained): 750 µg/mL (≈ 1.34 mM)
solubility thermodynamic (physchem; 50% peg 600, 50% h2o, Concentration Obtained): 500 µg/mL (≈ 0.897 mM)
solubility thermodynamic (physchem; 50% peg 1000, 50% h2o, Concentration Obtained): 720 µg/mL (≈ 1.29 mM)
solubility thermodynamic (physchem; peg 400/ba/h2o, Concentration Obtained): 1010 µg/mL (≈ 1.81 mM)
solubility thermodynamic (physchem; [3]): 4000 µg/mL (≈ 7.17 mM)
solubility thermodynamic (physchem; peg 600/ba/h2o, Concentration Obtained): 890 µg/mL (≈ 1.6 mM)
solubility thermodynamic (physchem; [4]): 4600 µg/mL (≈ 8.25 mM)
solubility thermodynamic (physchem; [5]): 4600 µg/mL (≈ 8.25 mM)
solubility thermodynamic (physchem; peg 600/ba/triton x-100/h2o, Concentration Obtained): 4630 µg/mL (≈ 8.3 mM)
solubility thermodynamic (physchem; peg 600/ba/tween 80/h2o, Concentration Obtained): 4790 µg/mL (≈ 8.59 mM)
solubility thermodynamic (physchem; peg 1000/ba/h2o, Concentration Obtained): 800 µg/mL (≈ 1.43 mM)
solubility thermodynamic (physchem; [6]): 6000 µg/mL (≈ 10.8 mM)
solubility thermodynamic (physchem; peg 1000/ba/pvp/h2o, Concentration Obtained (saturation level)): 5000 µg/mL (≈ 8.97 mM)
SMILES: CC[S+]([O-])Cc1ccc2c(c1)c1c3c(c4c5ccccc5n5c4c1n2C1CC(O)(C(=O)OC)C5(C)O1)CNC3=O (centres unmarked) [Compound C]
